How the values were obtained:
Assay type in all cases: in vivo, Malus silvestris L. var. domestica Borkh.
[1] = tested on: Rome Beauty apple-bearing cut-limbs; experiment: Long-term storage experiment with 1-MCP treatment; settings: 1 ppm 1-MCP at 1° C. for twenty-four hours
Description: (§1) For Rome Beauty apples only, a long term storage experiment and an ascorbic acid dip solution/plant regulator spray experiment were also carried out. For the long-term storage experiment, sixty cut-limbs were harvested, packed in the perforated bags, and stored at 1° C. (nearly the freezing temperature of water). Half of the cut-limbs were treated with 0.0001% by volume (1 ppm) of 1-methylcyclopropene (1-MCP) at 1° C. for twenty-four hours before storage. […] It is possible, however, that MCP treatment would be beneficial in other applications, e.g. with different fruit types, varieties, cultivars, etc.

[2] = tested on: Rome Beauty apples cut-limbs; experiment: Ascorbic acid dipping/abscisic acid spraying experiment; settings: packaged
Description: as §1
(§2) The cut-limbs without 1-MCP treatment, after twenty-three and forty-two days of cold storage, were then transferred to room temperature (20° C.), and treated with the following five treatments: bagging, water dipping, bagging plus dipping, bagging […] the control. For the ascorbic acid dipping/abscisic acid spraying experiment, the following four treatments were carried out: ascorbic acid (0.1%) dipping only, coating with an abscission-inducing agent (ABA) such as 0.001% by volume (10 ppm) of abscisic acid added only, 0.1% by volume of ascorbic acid dipping plus coating with ABA added, and the control only. All of the treatments included dipping or coating (or both) and packaging in the perforated polyethylene bags.

[3] = tested on: Rome Beauty apples cut-limbs; experiment: Ascorbic acid treatment, visual quality during storage; settings: for Fruit visual quality / Leaves Symptom / Leaves visual quality: Rome Beauty apples, ASA 0.1%, 30 mL, packaged, 20° C.
Description: as §2
(§3) Visual quality of leaves was scored with the widely used scale of 9=excellent, fresh; 7=good; 5=fair, slight discoloration; 3=mild discoloration and dryness; and 1=severe discoloration and dryness. Sensory quality of fruit was scored using a scale of 9=pleasant, fresh; 7=good; 5=bland, faint taste; 3=unpleasant taste; and 1=inedible. For both scales, a score of 5 is generally considered in post-harvest studies to be the threshold level of acceptability.

[4] = tested on: cut-limbs of Golden Delicious apple; experiment: Citric acid immerging, visual quality of cut-limbs; settings: 0.5% CA, 30 mL, packaged, 20° C.
Excerpt: as §3

[5] = 0.1% ascorbic acid dip solution
[6] = 10 ppm abscisic acid in the edible coatings

## CC1=CC1 [1-MCP, 1-methylcyclopropene]
[1]; Rome Beauty cut-limbs
  Fruit appearance: normal appearance
  Leaves showing brown-black burn symptoms: approximately 68%
[1]; after four days of storage at 1° C.
  Phytotoxicity to the leaves: severe phytotoxicity

## O=C1O[C@H]([C@@H](O)CO)C(O)=C1O [ASA, ascorbic acid]
[2]; [5]
  Shelf-life of the cut-limbs: increased
  Water loss: decreased
[3]; day 1
  Fruit visual quality: 9.0 a
  Leaves Symptom: Normal
  Leaves visual quality: 8.5 a
[3]; day 2
  Fruit visual quality: 9.0 a
  Leaves Symptom: Normal
  Leaves visual quality: 8.6 a
[3]; day 3
  Fruit visual quality: 9.0 a
  Leaves Symptom: Normal
  Leaves visual quality: 8.3 a
[3]; day 4
  Fruit visual quality: 9.0 a
  Leaves Symptom: Normal
  Leaves visual quality: 8.3 a
[3]; day 5
  Fruit visual quality: 9.0 a
  Leaves Symptom: Normal
  Leaves visual quality: 8.4 a
[3]; day 6
  Fruit visual quality: 9.0 a
  Leaves visual quality: 8.2 a
[3]; day 7
  Fruit visual quality: 8.5 a
  Leaves visual quality: 8.0 a
[3]; after seven days stored with water dipping and packaging, vs no-acid
  Color and luster (FIG. 3C): visibly better color and luster

## O=C(O)CC(O)(CC(=O)O)C(=O)O [CA, citric acid]
[4]; day 1
  Fruit visual quality: 9.0
  Leaves visual quality: 8.6
[4]; day 2
  Fruit visual quality: 9.0
  Leaves visual quality: 8.4
[4]; day 3
  Fruit visual quality: 9.0
  Leaves visual quality: 8.3
[4]; day 4
  Fruit visual quality: 8.5
  Leaves visual quality: 7.9
[4]; day 5
  Fruit visual quality: 8.5
  Leaves visual quality: 8.4
[4]; day 6
  Fruit visual quality: 8.5
  Leaves visual quality: 8.2
[4]; day 7
  Fruit visual quality: 8.5
  Leaves visual quality: 8.0

## CC1=CC(=O)CC(C)(C)[C@@]1(O)/C=C/C(C)=C\C(=O)O [abscisic acid]
[2]; [6]
  Shelf-life of the cut-limbs: increased
  Water loss: decreased
